Where two headings read alike, the source gives them in different places.
Tests used:
[1] = test system: Cunninghamella elegans 1906 DMS; test: Cunninghamella biotransformation assay, C. elegans; assay type: in vitro ADME; conditions: 7-day incubation; for % of compound/metabolite in C. elegans: 0.5 mg/mL, LC-MS/MS; for % of tested (parental) compound metabolized at the end of experiment: C. elegans
Method: (§1) Three different strains of Cunninghamella were used: Cunninghamella echinulata NRRL 1384, Cunninghamella blakesleeana 1908 DMS, and Cunninghamella elegans 1906 DMS. The first was provided by Dr. A.J. Carnell (University of Liverpool, UK), whereas the two remaining were purchased from Deutsche Sammlung von Mikroorganismen und Zellkulturen GmbH (DMSZ, Braunschweig, Germany).
(§2) Cunninghamella strains were cultivated on solid potato dextrose agar (PDA) plates at 28 °C. After 4 days, a liquid fermentation basal medium was prepared by the addition of 6 g of D-glucose, 1.5 g of NaCl, 1.5 g of yeast extract from Saccharomyces cerevisiae, and 1.5 g of K2HPO4 to 300 mL of distilled water. Aliquots of 24.5 mL of medium were inoculated with 300 μL of suspension of fungal spores obtained after wetting colonies in PDA. The fungi were incubated with shaking until the formation of spherical clumps.
(§3) Compounds 2–4 were evaluated in this experiment. Once microorganisms formed spherical clumps in the preliminary incubation, the corresponding tested compound was added to the broth and the mixture was incubated for 7 days. Two control experiments were also performed, in the absence of compound and fungus, respectively. Biotransformation progress was monitored by TLC and by liquid chromatography electrospray ionization-tandem mass spectrometry (LC-MS/MS). Monitoring was performed at four different incubation times: 30 min, 3 days, 5 days, and 7 days.
(§4) To analyze metabolites in LC-MS/MS, an aliquot of 500 μL of filtered sample was taken and extracted with 500 μL of dichloromethane. The organic fraction was dried with sodium sulfate, filtered, and evaporated. The obtained residue was analyzed in LC-MS/MS. At the end of experiment, all the remaining medium was extracted with 25 mL of dichloromethane after separating the fungal clumps by filtration over cellulose filters.
(§5) Agilent 1100 HPLC system (Agilent Technologies, Waldbronn, Germany) equipped with a Xbridge™ C18 analytical column (2.1 × 30 mm, […]; Waters, Dublin, Ireland) was used in the chromatographic separation of LC-MS/MS analysis. An elution gradient of acetonitrile and water, with 0.1% of formic acid, was used as a mobile phase. MS spectra were taken at Applied Biosystems MDS Sciex API 200 triple quadrupole mass analyzer (Concord, Ontario, Canada) with an electrospray ionization (ESI) interface between HPLC and MS.

[2] = test system: Cunninghamella blakesleeana 1908 DMS; test: Cunninghamella biotransformation assay, C. blakesleeana; assay type: in vitro ADME; conditions: 7-day incubation; for % of compound/metabolite in C. blakesleeana: 0.5 mg/mL, LC-MS/MS; for % of tested (parental) compound metabolized at the end of experiment: C. blakesleeana
Method: as §1, §2, §3, §4, §5

[3] = test system: Salmonella typhimurium TA100; test: S. typhimurium antimutagenicity assay against NQNO; assay type: cell-based; conditions: for Number of revertants per plate, Mean ± SD: antimutagenicity, NQNO line = NQNO as a single compound
Text: In the Ames test, Salmonella typhimurium TA100 strain was used. This strain has a base-pair substitution that can be reverted by mutations at GC pairs. In addition, it contains mutations at uvrB-bio and rfa genes to eliminate excision repair mechanisms and to make the bacteria more permeable to chemicals, respectively. Finally, TA100 also includes pKM101 plasmid, which enhances both chemical and UV-induced mutagenesis via an increase in the error-prone recombinational DNA repair pathway. TA100 strain of S. typhimurium was provided by Dr. T. Nohmi (Division of Genetics and Mutagenesis, National Institute of Hygienic Sciences, Tokyo, Japan). V. harveyi and S. typhimurium bacterial cultures were maintained at 30 and 37 °C, respectively.
(§6) It causes point mutations at the genome as it induces G:C → A:T transitions in Vibrio harveyi strains and in other bacteria such as Escherichia coli and S. typhimurium. […] Next, its working solution was prepared in sterile water, being 40 ng/mL its final concentration.
(§7) Procedure followed in the V. harveyi antimutagenicity assay was similar to the mutagenicity method described before. […] The results were expressed as the inhibition percentage of mutagenic effect, which was calculated with the formula: 100 − [(R 1/R 2) × 100], where R 1 is the number of revertants per plate in the presence of both mutagen and tested substance, and R 2 is the number of revertants per plate in the presence of mutagen. […] S. typhimurium antimutagenicity assay was based on similar assumptions as the V. harveyi antimutagenicity test. In this case, the chemopreventive activity was determined at two concentrations of a tested compounds and a standard mutagen, i.e., 40 and 500 ng/mL.

[4] = test system: Vibrio harveyi BB7M; test: Vibrio harveyi antimutagenicity assay against NQNO, BB7M; assay type: cell-based; conditions: compound 40 ng/mL + NQNO 40 ng/mL; for Number of revertants per plate, Mean ± SD: antimutagenicity, NQNO line = NQNO as a single compound
Text: (§8) Four Vibrio harveyi strains were used in this study: a wild-type BB7 (naturally found in the Baltic Sea) and three genetically modified strains, namely BB7M (obtained by the introduction of pAB1273 plasmid containing the genes mucA and mucB to enhance the error-prone DNA repair), BB7X (hypersensitive to UV radiation after genetic modification with Tn5TpMCS), and BB7XM (containing the two abovementioned modifications). These strains were kindly provided by Prof. G. Węgrzyn (Department of Molecular Biology, University of Gdańsk, Poland).
as §6, §7

[5] = test system: Vibrio harveyi BB7XM; assay type: cell-based; conditions: compound 40 ng/mL + NQNO 40 ng/mL; for Number of revertants per plate, Mean ± SD: antimutagenicity, NQNO line = NQNO as a single compound
Text: as §8, §6, §7

[6] = test system: Vibrio harveyi BB7XM; test: Vibrio harveyi mutagenicity assay, BB7XM; assay type: cell-based; conditions: 40 ng/mL; for MI (mutagenicity index): mutagenic if MI above 2.0; for Number of revertants per plate, Mean ± SD: mutagenicity
Method: From them, 0.2 mM working solutions were prepared by dilution with water. […] Working solutions were prepared by 1:100 dilution of stock solution in water, and final compound concentration assayed was 40 ng/mL.
as §8, §6
To perform the V. harveyi mutagenicity test, 10 μL of a working solution of the tested compound (100 μg/mL) were added to V. harveyi bacterial culture (OD600 = 0.1) in NaCl-containing BOSS liquid medium, being 40 ng/mL the final concentration of the tested compound. […] Then, an inoculum containing 5 × 10^6 cells was added to solid BOSS agar plate supplemented with neomycin sulfate at a final concentration of 100 μg/mL. Samples were left incubating 48 h at 30 °C, and revertant colonies were counted manually.

[7] = TA100, compound and NQNO 40 ng/mL
[8] = TA100, compound and NQNO 500 ng/mL

| Structure (SMILES) | % of compound/metabolite in C. elegans [1] | % of tested (parental) compound metabolized at the end of experiment [1] | % of compound/metabolite in C. blakesleeana [2] | % of tested (parental) compound metabolized at the end of experiment [2] | % inhibition of NQNO mutagenicity [3, 7] | % inhibition of NQNO mutagenicity [3, 8] | Number of revertants per plate, Mean ± SD [3, 7] | Number of revertants per plate, Mean ± SD [3, 8] | Number of revertants per plate, Mean ± SD [4] | % inhibition of NQNO mutagenicity [4] | Number of revertants per plate, Mean ± SD [5] | % inhibition of NQNO mutagenicity [5] | MI (mutagenicity index) [6] | Number of revertants per plate, Mean ± SD [6] |
| --- | --- | --- | --- | --- | --- | --- | --- | --- | --- | --- | --- | --- | --- | --- |
| COc1nc2c(c(=O)n(C)c(=O)n2C)n1CCCC(=O)NCc1ccccc1 [Compound 3, N-benzyl-4-(8-methoxy-1,3-dimethyl-2,6-dioxo-purin-7-yl)butanamide] | 99.4% | 0.6% | 95.4% | 4.6% | 96% | 92% | 4 ± 2 | 8 ± 3 | 48 ± 8 | 50% | 65 ± 7 | 15% | 1.1 | 35 ± 7 |
| COc1nc2c(c(=O)n(C)c(=O)n2C)n1CCCC(=O)N1CCN(c2ccccc2)CC1 [Compound 4, 8-methoxy-1,3-dimethyl-7-[4-oxo-4-(4-phenylpiperazin-1-yl)butyl]purine-2,6-dione] | 47.0% | 53.0% | 33.3% | 66.6% | 93% | 88% | 6 ± 2 | 11 ± 3 | 50 ± 9 | 49% | 70 ± 7 | 9% | 1.2 | 41 ± 9 |

Reference: publication PMC5756575, “In Vitro Biotransformation, Safety, and Chemopreventive Action of Novel 8-Methoxy-Purine-2,6-Dione Derivatives” (Applied Biochemistry and Biotechnology, 2017)
